PMC9326880 (Journal of Food and Drug Analysis, 2017)
Read-outs that look alike come from different tables or passages of the source.

Experiments:
P-gp [1] = biological target: T1, P-gp (Homo sapiens, UniProt P08183)
P-gp [2] = biological target: T1, P-gp; remark: listed apart in the source

T1 sequence (P08183 whole entry): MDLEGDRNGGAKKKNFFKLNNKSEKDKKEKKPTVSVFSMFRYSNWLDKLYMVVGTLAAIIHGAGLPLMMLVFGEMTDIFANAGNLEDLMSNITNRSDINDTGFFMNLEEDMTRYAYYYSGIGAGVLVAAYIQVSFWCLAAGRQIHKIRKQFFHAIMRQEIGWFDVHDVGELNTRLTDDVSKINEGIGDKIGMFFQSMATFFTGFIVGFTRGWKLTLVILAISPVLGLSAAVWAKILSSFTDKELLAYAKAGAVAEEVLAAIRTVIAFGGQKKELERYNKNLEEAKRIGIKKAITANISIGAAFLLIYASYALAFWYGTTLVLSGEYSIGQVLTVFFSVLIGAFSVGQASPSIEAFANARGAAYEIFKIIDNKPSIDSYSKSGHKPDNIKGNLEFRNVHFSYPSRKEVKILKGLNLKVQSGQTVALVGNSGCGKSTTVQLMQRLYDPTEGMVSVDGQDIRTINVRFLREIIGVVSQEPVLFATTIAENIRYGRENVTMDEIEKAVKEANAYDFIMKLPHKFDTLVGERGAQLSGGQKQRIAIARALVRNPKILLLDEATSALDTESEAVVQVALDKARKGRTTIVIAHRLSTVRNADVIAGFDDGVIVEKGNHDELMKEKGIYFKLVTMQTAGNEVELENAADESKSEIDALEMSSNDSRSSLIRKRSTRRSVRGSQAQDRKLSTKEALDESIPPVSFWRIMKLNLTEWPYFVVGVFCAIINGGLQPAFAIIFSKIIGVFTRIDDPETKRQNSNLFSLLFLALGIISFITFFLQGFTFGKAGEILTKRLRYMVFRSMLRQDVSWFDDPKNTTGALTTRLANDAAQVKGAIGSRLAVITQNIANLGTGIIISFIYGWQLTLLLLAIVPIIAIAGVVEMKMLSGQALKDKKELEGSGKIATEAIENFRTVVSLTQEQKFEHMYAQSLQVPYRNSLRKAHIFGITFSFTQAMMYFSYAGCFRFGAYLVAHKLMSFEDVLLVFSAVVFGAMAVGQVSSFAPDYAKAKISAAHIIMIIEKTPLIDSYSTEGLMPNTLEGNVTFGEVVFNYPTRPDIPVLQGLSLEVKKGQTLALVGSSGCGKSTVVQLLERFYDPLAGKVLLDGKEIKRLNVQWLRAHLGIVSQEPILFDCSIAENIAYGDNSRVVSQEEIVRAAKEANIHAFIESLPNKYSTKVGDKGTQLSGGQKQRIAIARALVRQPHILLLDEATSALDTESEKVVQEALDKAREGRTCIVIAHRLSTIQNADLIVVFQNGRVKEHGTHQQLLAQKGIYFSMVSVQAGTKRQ

| SMILES | Influence on viability of LS 180 cells (MTT) (LS 180 cells) | Decrease of intracellular accumulation of rhodamine 123 (P-gp [1]) | Decrease of intracellular accumulation of rhodamine 123 (P-gp [2]) | Enhancement of intracellular accumulation of rhodamine 123 (P-gp [1]) |
| --- | --- | --- | --- | --- |
| COc1ccc2cc3[n+](cc2c1OC)CCc1cc2c(cc1-3)OCO2 [berberine, Berberine] | no toxic influences | 24–39% |  |  |
| c1c2c(cc3c1OCO3)-c1cc3ccc4c(c3c[n+]1CC2)OCO4 [coptisine, Coptisine] | no toxic influences | 24–39% |  |  |
| COc1cc2c(cc1OC)-c1cc3ccc(OC)c(OC)c3c[n+]1CC2 [palmatine, Palmatine] | no toxic influences | 16–18% |  |  |
| CO[C@H]1/C=C/O[C@@]2(C)Oc3c(C)c(O)c4c(O)c(c(/C=N/N5CCN(C)CC5)c(O)c4c3C2=O)NC(=O)/C(C)=C\C=C\[C@H](C)[C@H](O)[C@@H](C)[C@@H](O)[C@@H](C)[C@H](OC(C)=O)[C@@H]1C [rifampin, Rifampin] | no toxic influences |  | 22.7% |  |
| COc1ccc(CCN(C)CCCC(C#N)(c2ccc(OC)c(OC)c2)C(C)C)cc1OC (stereo not shown) [verapamil] | no toxic influences |  |  | 32.5% |
